Source: patent US10590078B2, “Sodium channel blockers” (Daewoong Pharmaceutical Co., Ltd., priority 2015, dated 2020)
Where two headings read alike, the source gives them in different places.

Biological target: human sodium ion channel 1.7 (hNav1.7) (Homo sapiens, UniProt Q15858)
Test: Blocking effect against sodium ion channel Nav1.7, IonFlux16 auto patch clamp in hNav1.7 HEK293 cells
Format: cell-based
[1] = hNav1.7 HEK293 cells, inhibition of peak current after 50 seconds treatment, eight concentrations, read-out: IC50

Chain of human sodium ion channel 1.7 (hNav1.7) (Q15858 whole entry): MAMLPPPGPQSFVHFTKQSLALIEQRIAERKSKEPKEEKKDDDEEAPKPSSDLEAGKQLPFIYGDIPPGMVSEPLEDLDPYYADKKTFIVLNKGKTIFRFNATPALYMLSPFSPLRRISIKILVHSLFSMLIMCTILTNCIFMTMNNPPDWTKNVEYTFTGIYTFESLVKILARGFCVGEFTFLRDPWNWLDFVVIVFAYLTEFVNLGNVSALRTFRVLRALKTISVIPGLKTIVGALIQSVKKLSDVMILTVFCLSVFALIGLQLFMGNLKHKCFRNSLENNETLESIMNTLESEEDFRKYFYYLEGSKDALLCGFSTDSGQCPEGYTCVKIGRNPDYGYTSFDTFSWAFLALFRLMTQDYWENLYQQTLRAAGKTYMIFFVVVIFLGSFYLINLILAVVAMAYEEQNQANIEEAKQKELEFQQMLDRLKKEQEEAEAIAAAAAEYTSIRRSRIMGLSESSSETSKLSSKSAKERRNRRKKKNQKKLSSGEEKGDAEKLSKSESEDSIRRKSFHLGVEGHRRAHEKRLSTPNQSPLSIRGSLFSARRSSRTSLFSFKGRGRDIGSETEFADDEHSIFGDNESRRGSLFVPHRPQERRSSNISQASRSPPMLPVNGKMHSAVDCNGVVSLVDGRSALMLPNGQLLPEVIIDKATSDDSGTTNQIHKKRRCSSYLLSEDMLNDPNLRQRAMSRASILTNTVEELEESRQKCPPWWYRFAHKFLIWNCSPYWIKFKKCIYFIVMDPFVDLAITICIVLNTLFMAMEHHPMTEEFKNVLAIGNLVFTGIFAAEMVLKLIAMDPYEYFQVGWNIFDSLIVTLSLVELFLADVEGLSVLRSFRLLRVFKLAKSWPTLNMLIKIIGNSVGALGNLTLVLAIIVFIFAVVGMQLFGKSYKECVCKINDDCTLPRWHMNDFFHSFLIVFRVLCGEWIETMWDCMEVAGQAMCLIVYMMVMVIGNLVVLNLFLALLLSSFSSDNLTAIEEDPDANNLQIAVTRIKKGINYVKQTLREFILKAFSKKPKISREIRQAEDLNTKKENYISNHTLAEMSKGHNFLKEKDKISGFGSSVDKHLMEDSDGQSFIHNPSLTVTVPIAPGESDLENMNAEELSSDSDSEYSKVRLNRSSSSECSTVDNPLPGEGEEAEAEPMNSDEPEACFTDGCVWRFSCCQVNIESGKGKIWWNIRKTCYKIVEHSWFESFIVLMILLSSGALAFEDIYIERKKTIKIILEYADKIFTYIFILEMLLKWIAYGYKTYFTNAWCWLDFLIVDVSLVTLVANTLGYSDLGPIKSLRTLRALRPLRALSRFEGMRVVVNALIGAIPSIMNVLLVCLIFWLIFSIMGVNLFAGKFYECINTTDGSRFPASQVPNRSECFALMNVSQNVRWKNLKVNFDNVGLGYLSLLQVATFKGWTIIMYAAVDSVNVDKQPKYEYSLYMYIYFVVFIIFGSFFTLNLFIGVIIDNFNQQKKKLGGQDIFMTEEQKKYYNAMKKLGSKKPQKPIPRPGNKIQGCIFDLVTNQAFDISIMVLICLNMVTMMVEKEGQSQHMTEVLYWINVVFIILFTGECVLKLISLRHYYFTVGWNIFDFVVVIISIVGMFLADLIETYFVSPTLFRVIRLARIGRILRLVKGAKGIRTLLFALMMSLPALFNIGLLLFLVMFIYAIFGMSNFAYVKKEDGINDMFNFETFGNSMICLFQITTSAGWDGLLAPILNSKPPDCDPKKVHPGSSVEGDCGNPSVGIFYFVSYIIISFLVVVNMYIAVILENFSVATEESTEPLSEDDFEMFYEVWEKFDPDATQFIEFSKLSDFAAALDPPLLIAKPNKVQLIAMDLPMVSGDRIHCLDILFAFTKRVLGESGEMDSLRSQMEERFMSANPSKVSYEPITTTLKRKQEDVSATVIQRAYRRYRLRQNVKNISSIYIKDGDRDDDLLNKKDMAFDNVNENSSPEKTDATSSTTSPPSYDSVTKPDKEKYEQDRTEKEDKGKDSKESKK

SMILES	IC50 [1]	IC50
CS(=O)(=O)NC(=O)c1cc(Cl)c(-n2nc(/C=C/c3ccccc3F)c3cc(Cl)ccc32)cc1F [Example 135, (E)-5-chloro-4-(5-chloro-3-(2-fluorostyryl)-1H-indazol-1-yl)-2-fluoro-N-(methylsulfonyl)benzamide]	370 nM	
COc1ccc(-c2nn(-c3cc(Cl)c(C(=O)NS(C)(=O)=O)cc3F)c3ccc(Cl)cc23)cc1 [Example 108, 2-chloro-4-(5-chloro-3-(4-methoxyphenyl)-1H-indazol-1-yl)-5-fluoro-N-(methylsulfonyl)benzamide]	1480 nM	
CS(=O)(=O)NC(=O)c1cc(Cl)c(-n2nc(-c3ccncc3)c3cc(Cl)ccc32)cc1F [Example 49, 5-chloro-4-(5-chloro-3-(pyridin-4-yl)-1H-indazol-1-yl)-2-fluoro-N-(methylsulfonyl)benzamide]	2220 nM	
NC(=O)NNC(=O)c1cc(Cl)c(-n2nc(-c3ccc(Cl)cc3F)c3cc(Cl)ccc32)cc1F [Example 290, 2-(5-chloro-4-(5-chloro-3-(4-chloro-2-fluorophenyl)-1H-indazol-1-yl)-2-fluorobenzoyl)hydrazine-1-carboxamide]	11200 nM	
CS(=O)(=O)NC(=O)c1ccc(-n2nc(-c3ccc(F)cc3)c3cc(Cl)ccc32)c(C#N)c1 [Example 101, 4-(5-chloro-3-(4-fluorophenyl)-1H-indazol-1-yl)-3-cyano-N-(methylsulfonyl)benzamide]	3020 nM	
CS(=O)(=O)NC(=O)c1ccc(-n2nc(-c3ccc(C(F)(F)F)cc3)c3cc(Cl)ccc32)c(F)c1 [Example 122, 4-(5-chloro-3-(4-(trifluoromethyl)phenyl)-1H-indazol-1-yl)-3-fluoro-N-(methylsulfonyl)benzamide]	310 nM	
CN(C(=O)c1cc(Cl)c(-n2nc(-c3ccc(Cl)cc3F)c3cc(Cl)ccc32)cc1F)S(C)(=O)=O [Example 139, 5-chloro-4-(5-chloro-3-(4-chloro-2-fluorophenyl)-1H-indazol-1-yl)-2-fluoro-N-methyl-N-(methylsulfonyl)benzamide]	1430 nM	
CS(=O)(=O)NC(=O)c1ccc(-n2nc(-c3cccc(F)c3)c3cc(Cl)ccc32)c(C#N)c1 [Example 103, 4-(5-chloro-3-(3-fluorophenyl)-1H-indazol-1-yl)-3-cyano-N-(methylsulfonyl)benzamide]	2170 nM	
CS(=O)(=O)NC(=O)c1cc(Cl)c(-n2nc(-c3cccnc3)c3cc(F)ccc32)cc1F [Example 165, 5-chloro-2-fluoro-4-(5-fluoro-3-(pyridin-3-yl)-1H-indazol-1-yl)-N-(methylsulfonyl)benzamide]	5490 nM	
CS(=O)(=O)NC(=O)c1cc(Cl)c(-n2nc(Cl)c3cc(-c4ccc(Cl)cc4F)ccc32)cc1F [Example 247, 5-chloro-4-(3-chloro-5-(4-chloro-2-fluorophenyl)-1H-indazol-1-yl)-2-fluoro-N-(methylsulfonyl)benzamide]	304 nM	
CC(C)(C)OC(=O)N1CC=C(c2nn(-c3cc(F)c(C(=O)NS(C)(=O)=O)cc3Cl)c3ccc(Cl)cc23)CC1 [Example 131, tert-butyl 4-(5-chloro-1-(2-chloro-5-fluoro-4-((methylsulfonyl)carbamoyl)phenyl)-1H-indazol-3-yl)-3,6-dihydropyridine-1(2H)-carboxylate]	2600 nM	
CS(=O)(=O)NC(=O)c1cc(Cl)c(-n2nc(-c3ccccc3F)c3cc(F)ccc32)cc1F [Example 143, 5-chloro-2-fluoro-4-(5-fluoro-3-(2-fluorophenyl)-1H-indazol-1-yl)-N-(methylsulfonyl)benzamide]	120 nM	
CS(=O)(=O)NC(=O)c1cc(Cl)c(-n2nc(-c3cc(F)ccc3F)c3cc(F)ccc32)cc1F [Example 160, 5-chloro-4-(3-(2,5-difluorophenyl)-5-fluoro-1H-indazol-1-yl)-2-fluoro-N-(methylsulfonyl)benzamide]	210 nM	
CS(=O)(=O)NC(=O)c1ccc(-n2cc(-c3ccc(Cl)cc3)c3cc(Cl)ccc32)nc1 [Example 274, 6-(5-chloro-3-(4-chlorophenyl)-1H-indol-1-yl)-N-(methylsulfonyl)nicotinamide]	5960 nM	
CS(=O)(=O)NC(=O)c1cc(Cl)c(-n2nc(-c3cccc(C(F)(F)F)c3)c3ccccc32)cc1F [Example 172, 5-chloro-2-fluoro-N-(methylsulfonyl)-4-(3-(3-(trifluoromethyl)phenyl)-1H-indazol-1-yl)benzamide]	140 nM	
CS(=O)(=O)NC(=O)c1ccc(-n2nc(-c3ccc(Cl)cc3)c3cc(Cl)ccc32)c(F)c1 [Example 126, 4-(5-chloro-3-(4-chlorophenyl)-1H-indazol-1-yl)-3-fluoro-N-(methylsulfonyl)benzamide]	990 nM	
COc1cc(F)ccc1-c1cn(-c2cc(F)c(C(=O)NS(C)(=O)=O)cc2Cl)c2ncc(Cl)cc12 [Example 199, 5-chloro-4-(5-chloro-3-(4-fluoro-2-methoxyphenyl)-1H-pyrrolo[2,3-b]pyridin-1-yl)-2-fluoro-N-(methylsulfonyl)benzamide]	200 nM	
CS(=O)(=O)NC(=O)c1cc(Cl)c(-n2nc(/C=C/c3ccccc3)c3cc(Cl)ccc32)cc1F [Example 133, (E)-5-chloro-4-(5-chloro-3-styryl-1H-indazol-1-yl)-2-fluoro-N-(methylsulfonyl)benzamide]	120 nM	
Cn1nccc1-c1nn(-c2cc(F)c(C(=O)NS(C)(=O)=O)cc2Cl)c2ccc(Cl)cc12 [Example 87, 5-chloro-4-(5-chloro-3-(1-methyl-1H-pyrazol-5-yl)-1H-indazol-1-yl)-2-fluoro-N-(methylsulfonyl)benzamide]	> 3000 nM	
COc1cccc(-c2nn(-c3cc(F)c(C(=O)NS(C)(=O)=O)cc3Cl)c3ccc(F)cc23)c1 [Example 151, 5-chloro-2-fluoro-4-(5-fluoro-3-(3-methoxyphenyl)-1H-indazol-1-yl)-N-(methylsulfonyl)benzamide]	80 nM	
CS(=O)(=O)NC(=O)c1cc(Cl)c(-n2cc(Cl)c3c(Cl)c(O)ccc32)cc1F [Example 267, 5-chloro-4-(3,4-dichloro-5-hydroxy-1H-indol-1-yl)-2-fluoro-N-(methylsulfonyl)benzamide]	> 10000 nM	

Continued, values first:

IC50 [1]	IC50	SMILES
> 10000 nM		NC(=O)c1cc(Cl)c(-n2nc(-c3ccc(Cl)cc3F)c3cc(Cl)ccc32)cc1F [Example 292, 5-chloro-4-(5-chloro-3-(4-chloro-2-fluorophenyl)-1H-indazol-1-yl)-2-fluorobenzamide]
587 nM		CS(=O)(=O)NC(=O)c1cc(Cl)c(-n2nc(Cl)c3cc(C(F)(F)F)ccc32)cc1F [Example 18, 5-chloro-4-(3-chloro-5-(trifluoromethyl)-1H-indazol-1-yl)-2-fluoro-N-(methylsulfonyl)benzamide]
> 10000 nM		CS(=O)(=O)N(Cc1ccc2ccccc2c1)C(=O)c1cc(Cl)c(-n2nc(Cl)c3cc(O)ccc32)cc1F [Example 140, 5-chloro-4-(3-chloro-5-hydroxy-1H-indazol-1-yl)-2-fluoro-N-(methylsulfonyl)-N-(naphthalen-2-ylmethyl)benzamide]
> 10000 nM		CC(=O)NC(=O)c1cc(Cl)c(-n2nc(-c3ccc(Cl)cc3F)c3cc(Cl)ccc32)cc1F [Example 293, N-acetyl-5-chloro-4-(5-chloro-3-(4-chloro-2-fluorophenyl)-1H-indazol-1-yl)-2-fluorobenzamide]
280 nM		CC(Oc1ccc2c(c1)c(Cl)nn2-c1cc(F)c(C(=O)NS(C)(=O)=O)cc1Cl)c1ccc(F)cc1 (stereo not drawn) [Example 39, 5-chloro-4-(3-chloro-5-(1-(4-fluorophenyl)ethoxy)-1H-indazol-1-yl)-2-fluoro-N-(methylsulfonyl)benzamide]
450 nM		CS(=O)(=O)NC(=O)c1cc(F)c(-n2nc(-c3cccc(C#N)c3)c3cc(Cl)ccc32)cc1Cl [Example 109, 2-chloro-4-(5-chloro-3-(3-cyanophenyl)-1H-indazol-1-yl)-5-fluoro-N-(methylsulfonyl)benzamide]
211 nM		CS(=O)(=O)NC(=O)c1cc(Cl)c(-n2nc(Cl)c3cc(OCC4CCCCC4)ccc32)cc1F [Example 34, 5-chloro-4-(3-chloro-5-(cyclohexylmethoxy)-1H-indazol-1-yl)-2-fluoro-N-(methylsulfonyl)benzamide]
	90 nM	CS(=O)(=O)NC(=O)c1cc(Cl)c(-n2nc(-c3cc(F)ccc3F)c3cc(Cl)ccc32)cc1F [Example 76, 5-chloro-4-(5-chloro-3-(2,5-difluorophenyl)-1H-indazol-1-yl)-2-fluoro-N-(methylsulfonyl)benzamide]
913 nM		CS(=O)(=O)NC(=O)c1cc(Cl)c(-n2nc(-c3cccnc3)c3cc(Cl)ccc32)cc1F [Example 50, 5-chloro-4-(5-chloro-3-(pyridin-3-yl)-1H-indazol-1-yl)-2-fluoro-N-(methylsulfonyl)benzamide]
> 10000 nM		CS(=O)(=O)NC(=O)c1ccc(-n2nc(-c3cccc(C#N)c3)c3cc(F)ccc32)c(C#N)c1 [Example 168, 3-cyano-4-(3-(3-cyanophenyl)-5-fluoro-1H-indazol-1-yl)-N-(methylsulfonyl)benzamide]
640 nM		CS(=O)(=O)NC(=O)c1cc(Cl)c(-n2nc(-c3c(F)cccc3Cl)c3cc(F)ccc32)cc1F [Example 162, 5-chloro-4-(3-(2-chloro-6-fluorophenyl)-5-fluoro-1H-indazol-1-yl)-2-fluoro-N-(methylsulfonyl)benzamide]
210 nM		Cc1ccccc1-c1nn(-c2cc(F)c(C(=O)NS(C)(=O)=O)cc2Cl)c2ccccc12 [Example 173, 5-chloro-2-fluoro-N-(methylsulfonyl)-4-(3-(o-tolyl)-1H-indazol-1-yl)benzamide]
> 10000 nM		CS(=O)(=O)NC(=O)c1ccc(-n2nc(-c3cncc(Cl)c3)c3cc(Cl)ccc32)c(C#N)c1 [Example 104, 4-(5-chloro-3-(5-chloropyridin-3-yl)-1H-indazol-1-yl)-3-cyano-N-(methylsulfonyl)benzamide]
880 nM		CS(=O)(=O)NC(=O)c1ccc(-n2nc(Cl)c3cc(Cl)ccc32)c(Cl)c1 [Example 8, 3-chloro-4-(3,5-dichloro-1H-indazol-1-yl)-N-(methylsulfonyl)benzamide]
3090 nM		CS(=O)(=O)NC(=O)c1cc(Cl)c(-n2ncc3c(Cl)c(F)ccc32)cc1F [Example 15, 5-chloro-4-(4-chloro-5-fluoro-1H-indazol-1-yl)-2-fluoro-N-(methylsulfonyl)benzamide]
